Measurements taken from PMC11590367, “Characterization of novel small molecule inhibitors of estrogen receptor-activation function 2 (ER-AF2)” (Breast Cancer Research : BCR, 2024).

Tests used:
Assay type in all cases: cell-based
TamR3 cells = experiment: PrestoBlue viability assay, TamR3; conditions: 1 nM E2, 72 h treatment, ± SD of 3 biological replicates
Protocol: T47D, MCF7, TamR3, and MDA-MB-231 cells were starved for 72 h and then seeded into black clear-bottom 96-well plates (Corning Life Sciences Cat#3904) at 20,000 cells/well (T47D, MCF7, TamR3) or 5,000 cells/well (MDA-MB-231). […] 20 µl of PrestoBlue Cell Viability Reagent (Thermo Fisher A13262) was added to each well and incubated at 37 °C for 1 h. Fluorescence intensity was measured using the TECAN F500 plate reader with emission and excitation wavelengths of […], respectively.

[1] = molecular target: T1, ER-SRC3 interaction in TamR3 cells (Homo sapiens, UniProt P03372); experiment: Proximity ligation assay (PLA), TamR3
T1 construct: endogenous in cells; host or cells: MCF7 or TamR3 cells
Protocol: (§1) MCF7 or TamR3 cells were starved for 72 h and then seeded onto PEI coated coverslips in a 6-well plate at 1 × 10^5 cells/well. For the E2 experiments, the cells were treated the following day with 10 µM of ER-AF2 inhibitor for 24 h, with E2 added 1 h before fixation. […] 24 h post-treatment, cells were fixed in methanol:acetone (3:1). Coverslips were then permeabilized with 0.05% Triton X-100 for 5 minutes at room temperature. The Duolink In Situ Detection Reagents Red kit from Millipore Sigma (DUO92008) was used for blocking and PLA according to the manufacturer’s protocol.

[2] = molecular target: ER-D538G - SRC3 interaction (Homo sapiens, UniProt P03372, D538G); experiment: Proximity ligation assay, ER-D538G mutant; conditions: PLA, 10 µM
Protocol: as §1, with “protocol. Primary antibodies, Estrogen Receptor alpha antibody (F-10) (sc-8002) and Rabbit anti-SRC3 antibody (A300-348 A), were diluted 1:50 in antibody diluent.” for “protocol.”

ER D538G/F404L mutant = ER D538G/F404L mutant (Homo sapiens, UniProt P03372, D538G/F404L); experiment: Transcriptional activity of fulvestrant resistant mutant ER; conditions: compared to DMSO
[3] = system: ER target genes (cyclinD1, CDC2, E2F, PR, pS2) in MCF7 cells; experiment: Real-time PCR of ER target genes, MCF7; conditions: 10 µM, 72 h, E2 stimulation
Protocol: Total RNA was extracted using TRIzol, 72 h post-treatment. cDNA synthesis was conducted using the Maxima First Strand cDNA Synthesis Kit for RT-qPCR (Thermo K1641) according to the manufacturer’s protocol. RT-PCR was conducted on the QuantStudio 7 Pro instrument and expression fold change was calculated using 2−ΔΔCt method normalized to 18s.

[4] = molecular target: T2, ER (ERE-luc) in PC3 cells (Homo sapiens, UniProt P03372); experiment: Nuclear receptor luciferase transcriptional assay, ER; conditions: 1 or 5 µM, 1 nM E2, PC3 cells
T2 construct: expressed in transfected cells; host or cells: PC3 cells
Protocol: (§2) PC3 cells (androgen receptor (AR)-, glucocorticoid receptor (GR)[…], progesterone receptor (PR)-, ER-) were starved for 72 h then seeded into a 96-well plate at a density of 5,000 cells/well. 24 h later, cells were transfected with either ER, AR, GR, or PR and a luciferase plasmid (ERE-luc for ER and ARR3tk-luc for AR, GR, and PR). 24 h post-transfection, cells were simultaneously stimulated with 1 nM E2 for ER, 0.1 nM R1881 for AR, 1 nM Dexamethasone for GR, or 1 nM Levonorgestrel for PR, and treated with 1 or 5 µM of VPC-260724 24 h post-treatment, cells were lysed with 50 µl of passive lysis buffer (Promega #E1910). 20 µl of lysate was transferred to a white flat-bottom 96-well plate (Corning Life Sciences Cat#3912). Luminescence readings were obtained using the TECAN M200 Pro plate reader following the addition of 50 µl of luciferase reagent (Promega Luciferase Assay System E1500).

[5] = molecular target: T3, AR (ARR3tk-luc) in PC3 cells (Homo sapiens, UniProt P10275); experiment: Nuclear receptor luciferase transcriptional assay, AR; conditions: 1 or 5 µM, 0.1 nM R1881, PC3 cells
T3 construct: expressed in transfected cells; host or cells: PC3 cells
Protocol: as §2

T1 sequence (P03372 whole entry): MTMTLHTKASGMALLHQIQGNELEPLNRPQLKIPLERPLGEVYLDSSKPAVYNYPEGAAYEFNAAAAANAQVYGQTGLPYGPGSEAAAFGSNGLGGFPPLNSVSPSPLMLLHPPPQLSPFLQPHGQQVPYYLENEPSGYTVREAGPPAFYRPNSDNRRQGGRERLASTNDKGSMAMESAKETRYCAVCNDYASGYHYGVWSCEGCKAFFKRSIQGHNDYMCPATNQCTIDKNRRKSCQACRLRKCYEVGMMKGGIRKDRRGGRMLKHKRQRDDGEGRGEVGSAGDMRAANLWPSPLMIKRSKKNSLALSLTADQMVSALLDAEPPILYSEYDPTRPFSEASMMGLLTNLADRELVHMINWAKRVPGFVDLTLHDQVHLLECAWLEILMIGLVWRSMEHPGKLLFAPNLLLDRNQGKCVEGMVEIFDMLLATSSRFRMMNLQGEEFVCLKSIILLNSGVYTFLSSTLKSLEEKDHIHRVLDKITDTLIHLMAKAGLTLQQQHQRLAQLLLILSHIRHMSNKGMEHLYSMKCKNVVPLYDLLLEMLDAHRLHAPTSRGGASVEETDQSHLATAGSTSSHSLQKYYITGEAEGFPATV
Sequence of ER D538G/F404L mutant (P03372 whole entry F404L/D538G): as the sequence (P03372 whole entry) above, with F404L, D538G counted along it
T3 sequence (P10275 whole entry): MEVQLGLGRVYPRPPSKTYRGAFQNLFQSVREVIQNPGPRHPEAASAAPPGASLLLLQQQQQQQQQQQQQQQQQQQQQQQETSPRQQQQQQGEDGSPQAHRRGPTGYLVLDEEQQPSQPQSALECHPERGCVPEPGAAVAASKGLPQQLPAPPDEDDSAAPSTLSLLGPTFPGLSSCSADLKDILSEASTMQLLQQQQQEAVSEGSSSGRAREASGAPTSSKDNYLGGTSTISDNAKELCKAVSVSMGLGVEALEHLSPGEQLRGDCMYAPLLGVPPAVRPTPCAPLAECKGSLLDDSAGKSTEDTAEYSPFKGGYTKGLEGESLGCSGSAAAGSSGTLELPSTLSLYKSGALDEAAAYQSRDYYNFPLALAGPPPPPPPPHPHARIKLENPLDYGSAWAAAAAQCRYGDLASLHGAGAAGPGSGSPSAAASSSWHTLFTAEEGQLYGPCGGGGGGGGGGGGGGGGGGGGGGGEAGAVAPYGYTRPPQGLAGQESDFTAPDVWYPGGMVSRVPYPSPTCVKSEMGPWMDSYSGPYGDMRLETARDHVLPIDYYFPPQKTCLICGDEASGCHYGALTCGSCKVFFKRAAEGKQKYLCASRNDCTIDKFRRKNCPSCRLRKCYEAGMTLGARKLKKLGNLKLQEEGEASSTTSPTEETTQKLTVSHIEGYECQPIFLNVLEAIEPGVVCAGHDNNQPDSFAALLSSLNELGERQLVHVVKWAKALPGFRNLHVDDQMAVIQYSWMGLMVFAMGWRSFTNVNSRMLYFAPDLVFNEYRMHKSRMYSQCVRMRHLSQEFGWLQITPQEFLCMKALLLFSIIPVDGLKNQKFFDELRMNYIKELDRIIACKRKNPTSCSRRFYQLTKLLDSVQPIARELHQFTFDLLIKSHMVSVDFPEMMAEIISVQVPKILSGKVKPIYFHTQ
T2 sequence (P03372 whole entry): as the sequence (P03372 whole entry) above
Sequence of ER-D538G - SRC3 interaction (P03372 whole entry D538G): as the sequence (P03372 whole entry) above, with D538G counted along it

Question: Which results are given for `Cc1cccn2c(CNCc3cccc(N(C)C)n3)cnc12` [VPC-260724]?
Answer: IC50 (TamR3 cells): 28.9 ± 4.55 µM; ER-SRC3 interaction in TamR3 in presence of tamoxifen ([1]; 10 µM with 1 µM Tamoxifen): reduced this interaction; ER-SRC3 interactions (PLA signals per nuclei), TamR3 ([1]; 10 µM, 48 h, E2 stimulation): significantly reduced ER-SRC3 interactions; Interaction between SRC3 and ER-D538G [2]: inhibited the interaction; Transcriptional activity of mutant ER D538G/F404L (ER D538G/F404L mutant): significantly reduced the transcriptional activity; mRNA levels of ER target genes, MCF7 [3]: significant decrease; Transcriptional activity of ER [4]: dose-dependent inhibition; Transcriptional activity of AR [5]: did not significantly impact
